Source: US4200575A, “7[(2-Thiazolyl)-2-(oxoimino)acetamido]cephalosporin derivatives” (Takeda Chemical Industries, Ltd., priority 1977, dated 1980)

Legend:
Assay in all cases: Minimal inhibitory concentration (M.I.C.), agar dilution method
Conditions in all cases: TSA, inoculum 10^7 /ml
C. freundii GN 1706 = assay type: cell-based, Citrobacter freundii
Source text: (§1) (a) Determination of minimal inhibitory concentrations (Tables 1 to 8):
(§2) Procedure: agar dilution method

C. freundii GN 99 = assay type: cell-based, Citrobacter freundii
Source text: as §1, §2

P. mirabilis GN 4359 = assay type: cell-based, Proteus mirabilis
Source text: as §1, §2

E. coli T-7 = assay type: cell-based, Escherichia coli
Source text: as §1, §2

E. coli NIHJ JC-2 = assay type: cell-based, Escherichia coli
Source text: as §1, §2

E. cloacae TN 1282 = assay type: cell-based, Enterobacter cloacae
Source text: as §1, §2

P. morganii IFO 3168 = assay type: cell-based, Proteus morganii
Source text: as §1, §2

E. coli 0-111 = assay type: cell-based, Escherichia coli
Source text: The minimal inhibitory concentrations (M.I.C.) of some representative cephalosporin derivatives of this invention as produced by the procedures described in those examples and the minimal inhibitory concentrations of cephalothin [sodium 7-(2-thienylacetamido)-3-acetoxymethyl-3-cephem-4-carboxylate], cephaloridine [7-(2-thienylacetamido)-3-(1-pyridyl)methyl-3-cephem-4-carboxylic acid betaine] and cefazolin [sodium 7-(1H-tetrazol-1-yl)acetamido-3-(2-methyl-1,3,4-thiadiazol-5-yl)thiomethyl-3-cephem-4-carboxylate], which are among the clinically established and commercially available cephalosporins (as described, for example, in the New England Journal of Medicine 294, 24, 1976 and Journal of Pharmaceutical Science 64, 1899, 1975), both against various bacteria, as well as the therapeutic effects of some respresentative cephalosporin derivatives of this invention and of cephaloridine in infected mice, are shown in tables.
as §1, §2

S. aureus 209P = assay type: cell-based, Staphylococcus aureus
Source text: as §1, §2

S. aureus 1840 = assay type: cell-based, Staphylococcus aureus
Source text: as §1, §2

K. pneumoniae GN 3835 = assay type: cell-based, Klebsiella pneumoniae
Source text: as §1, §2

K. pneumoniae DT = assay type: cell-based, Klebsiella pneumoniae
Source text: as §1, §2

P. rettgeri GN4733 = assay type: cell-based, Proteus rettgeri
Source text: as §1, §2

P. rettgeri TN 338 = assay type: cell-based, Proteus rettgeri
Source text: as §1, §2

S. marcescens TN 24 = assay type: cell-based, Serratia marcescens
Source text: as §1, §2

S. marcescens IFO 12648 = assay type: cell-based, Serratia marcescens
Source text: as §1, §2

P. vulgaris IFO 3988 = assay type: cell-based, Proteus vulgaris
Source text: as §1, §2

P. vulgaris GN 4413 = assay type: cell-based, Proteus vulgaris
Source text: as §1, §2

SMILES	minimal inhibitory concentration (M.I.C.) (C. freundii GN 1706)	minimal inhibitory concentration (M.I.C.) (C. freundii GN 99)	minimal inhibitory concentration (M.I.C.) (P. mirabilis GN 4359)	minimal inhibitory concentration (M.I.C.) (E. coli T-7)	minimal inhibitory concentration (M.I.C.) (E. coli NIHJ JC-2)	minimal inhibitory concentration (M.I.C.) (E. cloacae TN 1282)	minimal inhibitory concentration (M.I.C.) (P. morganii IFO 3168)	minimal inhibitory concentration (M.I.C.) (E. coli 0-111)	minimal inhibitory concentration (M.I.C.) (S. aureus 209P)	minimal inhibitory concentration (M.I.C.) (S. aureus 1840)	minimal inhibitory concentration (M.I.C.) (K. pneumoniae GN 3835)	minimal inhibitory concentration (M.I.C.) (K. pneumoniae DT)	minimal inhibitory concentration (M.I.C.) (P. rettgeri GN4733)	minimal inhibitory concentration (M.I.C.) (P. rettgeri TN 338)	minimal inhibitory concentration (M.I.C.) (S. marcescens TN 24)	minimal inhibitory concentration (M.I.C.) (S. marcescens IFO 12648)	minimal inhibitory concentration (M.I.C.) (P. vulgaris IFO 3988)	minimal inhibitory concentration (M.I.C.) (P. vulgaris GN 4413)
CNC(=O)O/N=C(\C(=O)NC1C(=O)N2C(C(=O)O)=C(CSc3nnc(CO)n3C)CSC12)c1csc(=N)[nH]1 (stereo not drawn) [Example IV - 5]	0.78	0.39	0.39	1.56	≤ 0.2	3.13	0.39	≤ 0.2	6.25	6.25	0.39	≤ 0.2	0.78	≤ 0.2	3.13	3.13	0.39	25
CNC(=O)O/N=C(\C(=O)NC1C(=O)N2C(C(=O)O)=C(C)CSC12)c1csc(=N)[nH]1 (stereo not drawn) [Example II - 6]	12.5	6.25	0.78	6.25	3.13	50	12.5	0.78	50	50	1.56	0.78	0.2	0.024	100	50	1.56	12.5
CCCNC(=O)O/N=C(\C(=O)NC1C(=O)N2C(C(=O)O)=C(CSc3nnnn3C)CSC12)c1csc(=N)[nH]1 (stereo not drawn) [Example II - 14]	0.39	0.2	0.39	3.13	0.39	3.13	0.2	0.024	1.56	3.13	0.39	0.1	0.2	≤ 0.012	3.13	3.13	0.1	12.5
CC(C)NC(=O)O/N=C(\C(=O)NC1C(=O)N2C(C(=O)O)=C(CSc3nnnn3C)CSC12)c1csc(=N)[nH]1 (stereo not drawn) [Example II - 18]	0.78	0.39	0.39	3.13	0.2	3.13	0.78	0.024	1.56	3.13	1.56	0.1	0.2	≤ 0.012	3.13	3.13	0.1	25
CNC(=O)O/N=C(\C(=O)NC1C(=O)N2C(C(=O)O)=C(CSc3nnnn3CCN(C)C)CSC12)c1csc(=N)[nH]1 (stereo not drawn) [Example IV - 3, 7-[2-(2-imino-4-thiazolin-4-yl)-2-methylcarbamoyloximinoacetamido]-3-[1-(2-dimethylammonium)ethyl-1H-tetrazol-5-yl]thiomethyl-3-cephem-4-carboxylate (syn-isomer)]	0.78	≤ 0.2	0.39	3.13	0.39	1.56	0.39	≤ 0.2	1.56	3.13	0.39	≤ 0.2	0.39	≤ 0.2	6.25	6.25	0.39	100
CCCCNC(=O)O/N=C(\C(=O)NC1C(=O)N2C(C(=O)O)=C(COC(C)=O)CSC12)c1csc(=N)[nH]1 (stereo not drawn) [Example II - 20]	0.39	0.39	0.1	3.13	0.1	6.25	0.39	0.024	1.56	1.56	0.39	0.05	0.05	≤ 0.012	12.5	6.25	0.2	12.5
CNC(=O)O/N=C(\C(=O)NC1C(=O)N2C(C(=O)O)=C(CSc3nnc(C)s3)CSC12)c1csc(=N)[nH]1 (stereo not drawn) [Example II - 5, sodium 7-[2-(2-imino-4-thiazolin-4-yl)-2-methylcarbamoyloximinoacetamido]-3-(2-methyl-1,3,4-thiadiazol-5-yl)thiomethyl-3-cephem-4-carboxylate (syn-isomer)]	1.56	0.39	0.78	3.13	0.39	1.56	0.39	0.1	3.13	3.13	0.78	0.1	0.78	≤ 0.05	0.78	3.13	0.39	12.5
CNC(=O)O/N=C(\C(=O)NC1C(=O)N2C(C(=O)O)=C(CSc3nc(CC(=O)O)cs3)CSC12)c1csc(=N)[nH]1 (stereo not drawn) [Example IV - 7]	3.13	0.78	≤ 0.2	6.25	0.78	12.5	0.78	≤ 0.2	12.5	12.5	0.39	≤ 0.2	0.39	≤ 0.2	6.25	3.13	≤ 0.2	50
